The source of these data is patent publication US5902794A (priority 1997, dated 1999).

In assay [1] the test system is LS-174T colon cancer cells. Description: cell cycle analysis, LS-174T. The format is cell-based, human. Particulars: 8-Cl 10 μM, 3 days, two separate experiments. How it is done: DNA histograms were generated on FACS II by using the DNA intercalating dye propidium iodide as described by Braylan et al. (Cytometry 2: 337-343, 1982). The percentage of cells in each cycle phase was calculated by using a PDP-11/34 computer and software as described by Neckers et al. (Mol. Cell. Biol. 6: 4244-4250, 1986).
Breast (MCF-7, MDA-MB-231) and colon (LS-174T) cancer cells in
log phase (untreated control) and 3 days after treatment with
(5 μM) were analyzed for DNA content by flow cytometric analysis

Assay [2] relates to R^I cAMP receptor protein (MDA-MB-231). Kind of assay: photoaffinity labelling of R^I cAMP receptor protein, MDA-MB-231. Particulars: 10 microM, 3 days; control 1.0. The format is cell-based, human. How it is done:
M is marker proteins of known molecular weight.
The incubations were carried out at 23° C. for 60 minutes in 96-well immunoplates. The reaction mixtures were then irradiated for 30 seconds at 254 nm, placing a Mineralite UVS-11 hand lamp directly onto the plate. The samples were mixed with 25 microliters of 3× sample buffer (3% SDS, 15% beta-mercaptoethanol, 30 mM Tris, 30% glycerol, 1% bromophenol blue saturated solution), boiled for 3 minutes, and centrifuged at 700×g for five minutes. The samples containing 50-100 micrograms of protein were subjected to 0.05% SDS-12% PAGE. The gels were fixed, dried, and exposed to X-ray films overnight. The protein concentrations were determined by the method of Lowry et al., (J. Biol. Chem. 193: 265-275, 1951) with bovine serum albumin as standard.
The levels of the receptor proteins are expressed relative to the R^I level in the untreated control cells of MDA-MB-231 and LS-174T, which are each set equal to 1.0 O.D.; the scale was expanded to differentiate the lower intensity bands.

The subject of assay [3] is p21 ras protein (MCF-7 cells). Description: Western blotting of p21 ras protein in MCF-7 cells. Format: cell-based, human. Particulars: 10 microM, three days. How it is done:
Western blotting of p21 protein was performed as described below. […] V is cell lysate from Ha-MuSV-transformed NIH3T3 clone 13-3B-4. M, marker proteins of known molecular weight.
Cellular proteins present in cell extracts were separated by 12% SDS-PAGE and transferred to nitrocellulose sheets in transfer buffer (25 mM Tris, 192 mM glycine, 20% methanol, pH 7.4). Nitrocellulose sheets were washed and first incubated with 3% bovine serum albumin in NTE-NP40 (50 mM Tris-HCl, pH 7.5, 150 mM NaCl, 2 mM EDTA, 0.1% Nonidet P-40) for three hours at 37° C. and then sequentially incubated with medium containing p21 monoclonal antiserum Y13-259 directed against the Ha-MuSV-encoded p21 for sixteen hours at 4° C., rabbit anti-rat IgG for 2.5 hours in an ice-water bath, and 5×10^5 cpm/ml ^125 I-protein A for one hour in an ice-water bath. The nitrocellulose sheets were air-dried and exposed to Kodak XAR film for 12-36 hours at -20° C. Comparison of the resulting autoradiograms with others in which normal rat serum was substituted for p21 monoclonal antibody permitted identification of p21. To provide a reference p21, cell lysates were prepared from NIH 3T3 clone 13-3B-4 that had been transfected with Ha-MuSV DNA.
The levels of p21 protein are expressed relative to the p21 level in the untreated control cells, which is set equal to 1.0 O.D.

In another assay the test system is LS-174T. Description: growth of LS-174T human colon carcinoma in nude mice. Format: in vivo. Particulars: nude mouse, pellet with 10 mg cAMP analogue, day 7. How it is done:
LS174T, human colon cancer line was s.c. grown in nude mice and a solid
tumor, transplantable, was obtained.
8Cl-cAMP and DBcAMP were given as a 20mg pellet consisting of 10 mg of […]

For assay [4], the system named is DMBA-induced mammary carcinomas. Description: in vivo growth of DMBA-induced mammary carcinomas in rats. Also on record: species or system rat. How it is done:
[…] |DMBA-induced mammary carcinomas in rats […] | 10 mg. cholesterol), was implanted on day 0 and day 14.

The subject of assay [5] is mammary tumor inductions by DMBA. Description: DMBA mammary tumor induction (FIG. 8). Format: in vivo. Particulars: 10 mg pellet one day before DMBA.
In a further assay the test system is c-myc protein. Kind of assay: c-myc protein level, Western blotting (FIG. 9B). Format: cell-based, human. To be noted: 5 micromol/L, three days. How it is done:
The cells were grown in suspension culture in RPMI 1640 medium supplemented with 10% fetal bovine serum, penicillin (50 U/ml), streptomycin ([…]), 10 mmol/L HEPES buffer, and extra glutamine. […] Surface antigen analysis of HL-60 cells was performed by flow cytometry using a panel of monoclonal antibodies reactive with either myeloid cells or monocytic cells. Terminal deoxynucleotidyl transferase (TdT) was assayed by an immunoperoxidase method using a TdT fluorescence kit. Western blotting of c-myc protein was performed using c-myc antibody 15206D11 (Scripps Clinic and Research Foundation, LaJolla, Calif.).
M marker proteins of known molecular weight. […] The resulting supernatants were used as cell lysates. […] ND=nondetectable.

For the compound `Nc1ncnc2c1nc(Cl)n2[C@@H]1O[C@@H]2COP(=O)(O)O[C@H]2[C@H]1O` [8-Cl-cAMP], in assay [1], the “% Cell population in G1” value is listed as 63,53%, the “% Cell population in G2 M” value was 22,25% and the “% Cell population in S” value is 15,22%. Also, the activity at 10 µM in assay [1] (Homo sapiens, LS174T, 72 h, read-out: % Growth) is 30.3%. Besides, in assay [2], the “R^I relative level” value turned out to be 0.25 ± 0.03. For the same compound, the “p21 level, in words” value in assay [3] was “markedly decreased level of p21”. Further, the “Change in mean tumor volume” value in the assay on LS-174T is given as 0.58 cm^3. In addition, the “Change in mean tumor volume (%)” value in the assay with LS-174T (none = 100) worked out at 60%. In addition, in assay [4] (10 mg pellet implanted twice every two weeks), the “tumor growth, in words” value was “completely stopped tumor growth”. Moreover, the “tumor regression within 30 days” value in assay [4] (within 30 days) was roughly 100%. Also, the “reduction in the total number of tumors produced” value in assay [5] is recorded as 70%. In the assay on c-myc protein, the “c-myc protein level, in words” value is “marked reduction of c-myc protein level”.
